For 96 compounds, AC50 results are on record in PubChem BioAssay AID493191 (Broad Institute, 2011).

This assay concerns MALME3 melanoma viability, CellTiter-Glo luminescence, 24 h. Kind of assay: MALME3 melanoma cell viability loss, dose response, orthogonal assay for MITF inhibitor project, CellTiter-Glo, cherry-picked (AID 493191). Background: ATP-based viability assays read luminescence as a measure of living cells.
As a reminder, the AC50 is the midpoint of the concentration-response curve, whichever way the signal moves. For the compound `CC1CN(C(=O)CCC(=O)NCCCN2CCC(Cc3ccccc3)CC2)c2cc(Cl)ccc2O1` (stereo unspecified), the AC50 is 19.4 µM. As for `CC(C)(C)c1ccc(OCCCNCc2ccccc2)cc1`, the figure is 27.4 µM; as for `CCOC(=O)c1nnn(-c2ccc([N+](=O)[O-])cc2[N+](=O)[O-])c1C`, 16 µM; as for `CCC(=O)N1CCN(c2ccc(NC(=O)c3ccc([N+](=O)[O-])o3)cc2Cl)CC1`, 9.97 µM. The result for `CC1CCC(C(C)C)C(OC(=O)C[n+]2cc(-c3ccc(Cl)cc3)n3c2CCCCC3)C1` (stereo unspecified) reads 18 µM. As for `COc1ccc(C(CCNC(C)c2ccccc2)c2ccc(F)cc2)cc1` (stereo unspecified), the figure is 16.7 µM; as for `Cc1cccc(NC2=C(NC(=O)c3ccccc3)C(=O)c3ccccc3C2=O)c1`, 25.3 µM. `CC(C)Oc1ccc(C(CCNCc2ccc(O)cc2)c2ccccc2)cc1` (stereo unspecified): the AC50 was 32.9 µM. In the case of `Cc1ccc([N+](=O)[O-])cc1N1C(=O)CS/C1=N\NC(=O)c1cccnc1`, the AC50 was 24.2 µM. `COc1ccc(Oc2cc(NC(=O)c3nn(C)cc3[N+](=O)[O-])cc([N+](=O)[O-])c2)cc1`: the AC50 was 17.7 µM. In the case of `COC(=O)CCS(=O)(=O)c1nc(-c2ccccc2)cc(C(F)(F)F)n1`, the AC50 was 14.9 µM. The result for `O=C(Nc1ccc(N2CCCC2)c(Cl)c1)c1ccc([N+](=O)[O-])o1` reads 11.1 µM; that for `Cc1ccccc1OCc1n(CC(=O)OC2CC(C)CCC2C(C)C)c2ccccc2[n+]1C` (stereo unspecified), 9.18 µM. As for `O=C(N/N=C/c1ccc(O)c2ncccc12)c1cccc(Br)c1`, the figure is 14.7 µM; as for `O=C(Nc1ccc2oc(-c3cccnc3)nc2c1)c1ccc([N+](=O)[O-])o1`, 25.9 µM; as for `Cc1[nH]nc2nc(SCC(=O)NCCC3=CCCCC3)n(-c3ccc(Br)cc3)c(=N)c12`, 20.5 µM. The result for `COc1ccc(-c2cc3c(nn2)-c2ccccc2C3=O)cc1` reads 14.5 µM; that for `CCC(C)(C)c1ccc(OCCCC[n+]2ccccc2)c(C(C)(C)CC)c1`, 10.8 µM. As for `C=Cc1ncc(OC)c2c1[nH]c1ccccc12`, the AC50 was 31.5 µM. As for `Cc1ccc(NC(=O)Cn2ncc(Cl)c(Cl)c2=O)cc1S(=O)(=O)N1CCCCC1`, the figure is 15.8 µM; as for `C=CCNC1=C(Cl)C(=O)c2ccccc2C1=O`, 15.6 µM; as for `Cc1cc(NC(=O)c2ccc([N+](=O)[O-])o2)ccc1NC(=O)c1ccco1`, 12.5 µM. For the compound `Cc1cc(C)cc(NC(=O)c2ccc([N+](=O)[O-])o2)c1`, the AC50 is 17.9 µM.

For `CC1=CC2/C=C(\C)CCC(O)C(O)/C=C/C(=O)C23C(=O)NC(CC(C)C)C3C1C` (stereo unspecified), the AC50 is 12.6 µM. For `CC(NC(=O)c1ccc([N+](=O)[O-])o1)C12CC3CC(CC(C3)C1)C2` (stereo unspecified), the AC50 was 31.9 µM. Consider `CC(C)(C)C(=O)Cn1ncc(Cl)c(Cl)c1=O`, for which the AC50 was 18 µM. The result for `CC1=C(CC(=O)c2ccccc2)C(=O)c2ccccc2C1=O` reads 12.7 µM.

Regarding `CN(C(=O)/C=C/c1ccc([N+](=O)[O-])s1)c1ccccc1`, the half-maximal activity concentration (AC50) is 34.4 µM. The result for `Cc1ccc(NC(=O)CN(C)C(=O)Cn2ncc(Cl)c(Cl)c2=O)cc1` reads 8.81 µM; that for `COc1ccc(C(=O)/C=C/C(=O)N(CC(=O)NC2CCCCC2)Cc2cccs2)c(O)c1`, 5.25 µM. As for `COc1ccc(CNCCC(c2ccc(F)cc2)c2ccc(OC)cc2)cc1` (stereo unspecified), the figure is 22 µM. The result for `COc1ccccc1NS(=O)(=O)c1cccc(C(=O)N/N=C/c2ccc([N+](=O)[O-])o2)c1` reads 14.6 µM. For the compound `Cc1ccc(C(C)C)c(OCc2nn(CC(=O)c3ccc(Cl)cc3)c3[n+]2CCCCC3)c1`, the AC50 is 18.4 µM. `Cc1cc(C)cc(OCC(=O)N/N=C/c2ccc([N+](=O)[O-])o2)c1`: the AC50 is 22.9 µM.

Turning to `COc1cccc(CNCCc2c[nH]c3ccccc23)c1OCc1ccccc1`, the AC50 was 17.9 µM. As for `CCSCCc1nnc(NC(=O)Nc2cccc(C(F)(F)F)c2)s1`, the AC50 is 29 µM. As to `CCc1ccc(NC2=CC(=O)C(=O)c3ccccc32)cc1`, the AC50 was 6.91 µM. As for `O=C(CCl)N1N=C(c2ccco2)CC1c1cccs1` (stereo unspecified), the figure is 23 µM. As for `Cn1c(SC2=CS(=O)(=O)c3ccccc32)nc2ccccc21`, the figure is 19.7 µM; as for `CCN(CC)CCNC(=O)c1c(C)n(-c2ccccc2)c2cc(Br)c(OC)cc12`, 18.9 µM.

As for `CC(C)(C)C(=O)/C(=C/c1ccncc1)n1cncn1`, the concentration at half-maximal activity (AC50) is 21.9 µM. The result for `COC1=C(Nc2ccc(O)cc2)C(=O)c2ccccc2C1=O` reads 14.3 µM; that for `CCN1CCCC1CNC(=O)c1ccc2c(c1)NC(=O)/C(=C\c1ccc(C)cc1)S2` (stereo unspecified), 26 µM; that for `CN1CCN(c2ccc(NC(=O)c3ccc([N+](=O)[O-])o3)cc2Cl)CC1`, 21.3 µM. For the compound `CC(C)(C)NC(=O)CCN(/N=C/c1ccc([N+](=O)[O-])o1)C1=NS(=O)(=O)c2ccccc21`, the AC50 was 31.9 µM. As for `CN1CCC(N(C)C(=O)/C=C/c2cn(-c3ccccc3)nc2-c2cccs2)CC1`, the figure is 29.7 µM; as for `O=C(Nc1nc(-c2ccccn2)cs1)c1ccc([N+](=O)[O-])o1`, 28.5 µM. The result for `CC(C)C(CCNC1CCN(C)CC1)c1ccc(Cl)cc1` (stereo unspecified) reads 24.3 µM; that for `C#CCCc1ccccc1/C=[N+](/C)[O-]`, 28.8 µM. As for `O=C(COc1ccccc1)N/N=C/c1ccc([N+](=O)[O-])o1`, the figure is 18.6 µM; as for `N#CC(C#N)=C1C=CC=CN1/C(=C\c1ccco1)C(=O)c1ccc(Br)cc1`, 24.6 µM; as for `CCN1CCN(c2ccc(S(=O)(=O)N3CCCCC3)cc2NC(=O)/C=C/c2cccc(OC)c2OC)CC1`, 29.7 µM. With `O=C(Cn1ncc(Cl)c(Cl)c1=O)Nc1ccc2c(c1)OCO2`, the AC50 is 25.1 µM. The result for `CCCCC[n+]1ccn(C2=C([O-])c3ccccc3C(=O)/C2=N\S(=O)(=O)c2ccccc2)c1` reads 14.2 µM; that for `O=C(N/N=C/c1ccc([N+](=O)[O-])o1)c1ccc(O)cc1`, 10.9 µM; that for `COc1cccc2sc(N3CCN(C(=O)c4ccc([N+](=O)[O-])o4)CC3)nc12`, 23.4 µM. As for `O=C(Cn1ncc(Cl)c(Cl)c1=O)NC1CCCCC1`, the figure is 24.8 µM; as for `CC1CCC(C(C)C)C(OC(=O)Cn2c(-c3ccccc3)[n+](C)c3ccccc32)C1` (stereo unspecified), 9.63 µM; as for `Cc1ccccc1C(=O)N/N=C/c1ccc([N+](=O)[O-])s1`, 30.9 µM. The result for `CCN1/C(=C/c2cc[n+](C)cc2)C=Cc2cc(C)ccc21` reads 16.9 µM; that for `CC(C)Oc1ccc(C(CCN)C2CCCCC2)cc1` (stereo unspecified), 14.6 µM; that for `O=C(/C=C/c1cccc([N+](=O)[O-])c1)c1cccs1`, 33.1 µM. Regarding `Cc1ccc2sc(N(CCCN(C)C)C(=O)c3ccc(S(=O)(=O)N(C)C4CCCCC4)cc3)nc2c1C`, the AC50 was 18.1 µM. The result for `CN(C)c1nc(C=C(C#N)C#N)c(Cl)n1-c1ccc(F)cc1` reads 21.2 µM; that for `Cc1ccc(NC(=O)c2cc(N3C(=O)C=CC3=O)ccc2N2CCOCC2)cc1`, 10.1 µM; that for `CC(=O)N(C)C1=C(N2CCOCC2)C(=O)c2ccccc2C1=O`, 12.7 µM.

Regarding `O=[N+]([O-])c1ccc(S(=O)(=O)CC(CN2CCCCC2)N2CCCCC2)cc1` (stereo unspecified), the AC50 was 13.4 µM. `COc1cc(/C=N/N=C(N)N)ccc1OCc1ccc(Cl)cc1`: the AC50 is 19.9 µM. For the compound `CC(C)(c1ccccc1)c1ccc(OCC(O)CNC2CCN(Cc3ccccc3)CC2)cc1` (stereo unspecified), the AC50 is 13.5 µM. The result for `CCCNC(=O)COC(=O)c1ccccc1C(=O)c1ccc(Cl)c([N+](=O)[O-])c1` reads 16.3 µM.

Turning to `CC1CCCCC1NC(=O)/C(C#N)=C/C=C/c1ccccc1[N+](=O)[O-]` (stereo unspecified), the AC50 was 27.5 µM. The result for `Cc1ccc(-c2nc(C(=O)NCCCN(C)C)cc3c2[nH]c2ccccc23)cc1` reads 31.1 µM; that for `O=C(N/N=C/c1ccc([N+](=O)[O-])s1)c1ccccc1Br`, 26.9 µM; that for `CCCCCCCNC(=O)C1(CC2CC(c3ccc(Cl)cc3)=NO2)CCNCC1` (stereo unspecified), 15.2 µM.

For `CC(C)(C)c1ccc(Cn2c(=N)n(CC(O)c3ccco3)c3ccccc32)cc1` (stereo unspecified), the AC50 is 18.3 µM. Consider `CCN(CC)CCNC(=O)C1CCN(S(=O)(=O)c2c(C)noc2/C=C/c2ccccc2F)CC1`, for which the AC50 was 30.4 µM. The result for `CS(=O)(=O)c1ncc(Cl)c(C(=O)Nc2ccc(N3CCOCC3)cc2)n1` reads 10.7 µM. For `O=C1C=C(N(CCO)Cc2ccccc2)c2ccccc2C1=O`, the AC50 was 16 µM. The result for `COc1ccc(-n2c(C)cc(C(=O)CCl)c2C)cc1` reads 19.3 µM. The result for `CCOC(=O)c1ccc(NC(=O)c2nc(S(=O)(=O)Cc3ccccc3)ncc2Cl)cc1` reads 4.47 µM. For the compound `CCN(CC)S(=O)(=O)c1ccc(N2CCCC2)c(NC(=O)c2ccc([N+](=O)[O-])o2)c1`, the AC50 was 19.5 µM.

With `CCN1CCN(CCCNC(=O)c2ccc3c(c2)NC(=O)/C(=C\c2cccc(C)c2)S3)CC1`, the AC50 is 28.1 µM. As for `CC1=NNC(=O)/C1=C\c1cn(-c2ccccc2)nc1-c1ccc(F)cc1`, the figure is 25.9 µM; as for `Cc1[nH]c2ccccc2c1C(=O)CCl`, 27.6 µM. The result for `Oc1cc(NCCN2CCOCC2)cc2cccnc12` reads 24.6 µM; that for `O=C(NC1CCCC(C(F)(F)F)C1)c1ccc([N+](=O)[O-])o1` (stereo unspecified), 20.8 µM; that for `Cc1scc(C(=O)N/N=C/c2ccc([N+](=O)[O-])o2)c1C`, 15.7 µM. For the compound `Cc1ccc(NCC(=O)N/N=C\c2ccc([N+](=O)[O-])o2)cc1`, the AC50 is 25.3 µM. The result for `O=C(Cn1ncc(Cl)c(Cl)c1=O)NCC1CCCCC1` reads 9.94 µM; that for `O=[N+]([O-])c1cccc2c(N3CCCC3)ccnc12`, 4.82 µM.

For `CCCCN(C)CC(O)Cn1cc(/C=C/C(=O)c2cccs2)c2ccccc21` (stereo unspecified), the AC50 was 18.6 µM. As for `Cc1ccc(C)c(C(=O)Cn2ncc(Cl)c(Cl)c2=O)c1`, the figure is 16 µM; as for `CCc1cc[n+](C2=C([O-])c3ccccc3C(=O)/C2=N\S(=O)(=O)c2cccs2)cc1`, 4.51 µM; as for `CC1C/C(=C\c2cccnc2)C(=O)/C(=C/c2cccnc2)C1` (stereo unspecified), 3.9 µM. On to `CS(=O)(=O)c1ccc(S(=O)CC(=O)OCc2ccccc2)c([N+](=O)[O-])c1` (stereo unspecified), for which the AC50 was 20 µM. On to `COc1ccc(-c2cc(-c3ccccc3)c(C#N)c(S(C)=O)n2)cc1` (stereo unspecified), for which the AC50 is 23.8 µM.
